pEC50, pIC50: −log10 of the molar value.
Columns and labels:
MV4-11 = assay: Cell viability assay (CellTiter-Blue), MV4-11; assay type: cell-based; conditions: Homo sapiens, read-out: EC50 MV4-11 μM (acute myeloid leukemia), MV4-11 cells, read-out: EC50 MV4-11 μM (myeloma)
Experimental: (§1) The representative compounds of the invention are also screened as regards their effects on cell proliferation and viability, using a variety of tumoral cell lines of human source, representative of different pathological indications. These cell lines include:
(§2) In order to measure the viability, the tumour cells are incubated in 96-well or 384-well format for 48, 72 or 96 hours, preferably 72 hours, with a compound of the invention at dilutions of a factor 3, with, in general, nine doses in total, the highest dose being equal to 10 μM or 30 μM. The cell viability is evaluated by adding CellTiter-Blue® (Promega, Madison, Wis., United States) for 4 hours and endpoint readings are taken using a SpectraMax Genmini EM plate reader (Molecular Devices, Sunnyvale, Calif., United States). The CellTiter-Blue® cell viability assay measures the ability of the cells in culture to reduce resazurin to resorufin, the intensity of the fluorescence signal being directly proportional to the number of live cells. The EC50 represents the concentration of compound that leads to a 50% reduction of the viability/proliferative expansion of the cells.

Pim-3 = target: T1, Pim-3 (Homo sapiens, UniProt Q86V86); assay: TR-FRET assay of Pim kinase activity (phosphorylation of Bad Ser112), Pim-3; assay type: biochemical; conditions: ATP 40 μM, read-out: IC50 Pim3
T1 construct: full-length human recombinant His6-labelled Pim-1, Pim-2 or Pim-3 protein; His6; made in house
In short: (§3)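 Full-length His6-tagged human Pim-1, -2 or -3 phosphorylate full-length His6-Bad at 40 μM ATP; phospho-Ser112 detected by TR-FRET (Eu anti-phosphoBad, APC anti-His6), 665/615 nm ratio. Compounds run at 10 concentrations in duplicate, typically top 30 μM; IC50 from 4-parameter logistic fit.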

PLK1 = PLK1 (Homo sapiens, UniProt P53350); assay: Biochemical results, IC50 PLK1
Chain of PLK1 (P53350 whole entry, species assumed): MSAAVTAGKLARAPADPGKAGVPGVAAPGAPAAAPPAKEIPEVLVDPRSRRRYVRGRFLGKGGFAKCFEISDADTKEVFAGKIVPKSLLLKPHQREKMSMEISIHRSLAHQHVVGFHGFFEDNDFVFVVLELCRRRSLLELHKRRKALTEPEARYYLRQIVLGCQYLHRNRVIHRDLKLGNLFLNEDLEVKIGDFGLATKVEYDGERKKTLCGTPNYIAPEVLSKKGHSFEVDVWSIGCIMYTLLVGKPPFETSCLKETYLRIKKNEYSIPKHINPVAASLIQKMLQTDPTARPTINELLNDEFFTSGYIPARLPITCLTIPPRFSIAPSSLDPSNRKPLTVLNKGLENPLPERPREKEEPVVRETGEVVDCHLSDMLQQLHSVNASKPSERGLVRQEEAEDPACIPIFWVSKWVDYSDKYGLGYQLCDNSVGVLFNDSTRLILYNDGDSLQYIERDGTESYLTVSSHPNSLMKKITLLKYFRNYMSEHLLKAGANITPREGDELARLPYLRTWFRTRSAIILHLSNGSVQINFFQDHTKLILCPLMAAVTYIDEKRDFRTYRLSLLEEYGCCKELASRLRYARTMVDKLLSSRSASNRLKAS

Pim-2 = target: T2, Pim-2 (Homo sapiens, UniProt Q9P1W9); assay: TR-FRET assay of Pim kinase activity (phosphorylation of Bad Ser112), Pim-2; assay type: biochemical; conditions: ATP 40 μM, read-out: IC50 Pim2
T2 construct: full-length human recombinant His6-labelled Pim-1, Pim-2 or Pim-3 protein; His6; made in house
T2 sequence (Q9P1W9 whole entry): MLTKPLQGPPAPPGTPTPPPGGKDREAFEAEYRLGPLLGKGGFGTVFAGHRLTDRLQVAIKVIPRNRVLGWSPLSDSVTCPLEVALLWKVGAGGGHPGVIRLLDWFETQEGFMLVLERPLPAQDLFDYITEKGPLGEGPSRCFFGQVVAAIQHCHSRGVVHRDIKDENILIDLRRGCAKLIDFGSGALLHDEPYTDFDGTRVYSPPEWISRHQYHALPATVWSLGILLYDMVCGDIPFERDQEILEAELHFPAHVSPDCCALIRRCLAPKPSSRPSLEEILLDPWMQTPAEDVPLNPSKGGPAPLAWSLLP
In short: as §3

MOLM-13 = assay: Cell viability assay (CellTiter-Blue), MOLM-13; assay type: cell-based; conditions: Homo sapiens, read-out: EC50 MOLM-13 μM, MOLM-13 cells, read-out: EC50 MOLM-13 μM (myeloma)
Experimental: as §1, §2

EOL-1 = assay: Cell viability assay (CellTiter-Blue), EOL-1; assay type: cell-based; conditions: Homo sapiens, EOL1, read-out: EC50 EOL-1 μM (eosinophilic leukaemia), EOL-1 cells, read-out: EC50 EOL-1 μM (lymphoma);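 note: EOL-1 is an acute myeloid eosinophilic leukaemia line not a lymphoma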
Source text: as §1
Models of Haematological Cancers: • TF-1 (acute myelogenic leukaemia; AML M6 at the time of diagnosis); • K G-1 (AML; erythroleukaemia evolving into AML); • KG-1a (AML; subclone derived from immature KG-1); • EOL-1 (AML: eosinophilic leukaemia); • PL-21 (AML; M3); • ML-2 (AML; T-NHL evolving into T-ALL evolving into AML M4); • HL-60 (AML, M3); • Kasumi-1 (AML); • GDM-1 (AML); • K-562 (CML—chronic myelogenic leukaemia; blastic crisis); • JURL-MK1 (CML; blastic crisis); • DND-41 (T-ALL—T-cell acute lymphoblastic leukaemia); • Jurkat (T-ALL); NALM-6 (B-ALL B-cell ALL); • CEM (ALL; lymphosarcoma evolving into ALL); • Jeko-1 (B-NHL—B-cell non-Hodgkin lymphoma; lymphoma with coat cells derived from a large-cell variant in leukaemic transformation); • WSU-DLCL2 (B-NHL; diffuse lymphoma with large B cells); • RL (B-NHL; undifferentiated diffuse); • OCl-Ly10 (B-NHL); • DoHH-2 (B-NHL); • RPMI-8226 (MM—multiple myelomas); • JVM-2 (B-CLL—B-cell chronic lymphocytic leukaemia); and • JVM-3 (B-CLL).
as §2

Pim-1 = target: T3, Pim-1 (Homo sapiens, UniProt P11309); assay: TR-FRET assay of Pim kinase activity (phosphorylation of Bad Ser112), Pim-1; assay type: biochemical; conditions: ATP 40 μM, read-out: IC50 Pim1
T3 construct: full-length human recombinant His6-labelled Pim-1, Pim-2 or Pim-3 protein; His6; made in house
T3 sequence (P11309 whole entry): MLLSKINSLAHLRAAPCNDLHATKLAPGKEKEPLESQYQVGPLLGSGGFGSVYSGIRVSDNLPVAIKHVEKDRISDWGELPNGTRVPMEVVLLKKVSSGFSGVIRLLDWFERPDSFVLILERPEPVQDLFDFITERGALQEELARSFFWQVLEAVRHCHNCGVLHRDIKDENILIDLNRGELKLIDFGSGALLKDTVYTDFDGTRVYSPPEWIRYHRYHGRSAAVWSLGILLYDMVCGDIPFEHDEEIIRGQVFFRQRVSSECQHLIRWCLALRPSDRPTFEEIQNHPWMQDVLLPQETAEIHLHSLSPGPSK
In short: as §3

CDK1 = CDK1 (Homo sapiens, UniProt P06493); assay: Biochemical results, IC50 CDK1
Chain of CDK1 (P06493 whole entry, species assumed): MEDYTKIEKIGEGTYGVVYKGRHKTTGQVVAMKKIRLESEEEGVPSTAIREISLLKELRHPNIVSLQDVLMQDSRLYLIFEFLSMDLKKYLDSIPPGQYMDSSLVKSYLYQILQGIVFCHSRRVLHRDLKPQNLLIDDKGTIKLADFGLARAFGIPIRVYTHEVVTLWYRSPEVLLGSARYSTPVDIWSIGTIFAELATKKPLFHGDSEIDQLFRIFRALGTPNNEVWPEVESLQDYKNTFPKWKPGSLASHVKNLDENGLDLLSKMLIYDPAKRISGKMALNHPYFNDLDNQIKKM
Chain of CDK1 (P14635 whole entry partner, species assumed): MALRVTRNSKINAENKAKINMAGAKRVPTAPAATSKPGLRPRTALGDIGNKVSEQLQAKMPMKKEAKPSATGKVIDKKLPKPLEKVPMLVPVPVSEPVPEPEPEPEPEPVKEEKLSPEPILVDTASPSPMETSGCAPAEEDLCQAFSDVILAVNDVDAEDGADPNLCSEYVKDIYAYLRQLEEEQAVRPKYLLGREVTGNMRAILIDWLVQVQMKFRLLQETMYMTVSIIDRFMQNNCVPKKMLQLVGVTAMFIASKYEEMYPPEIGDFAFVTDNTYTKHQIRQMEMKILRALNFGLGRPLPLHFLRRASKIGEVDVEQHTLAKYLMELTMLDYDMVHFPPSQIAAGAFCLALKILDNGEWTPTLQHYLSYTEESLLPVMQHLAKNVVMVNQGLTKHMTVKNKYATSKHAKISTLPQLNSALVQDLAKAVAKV

SMILES	pEC50 (MV4-11)	pIC50 (Pim-3)	pIC50 (PLK1)	pIC50 (Pim-2)	pEC50 (MOLM-13)	pEC50 (EOL-1)	pIC50 (Pim-1)	pIC50 (CDK1)
CN1CCN(NC(=O)c2ccc(-c3c(F)cnc4[nH]c5cnc(-c6cccnc6)cc5c34)cc2)CC1 [Example 7, 4-[3-fluoro-6-(pyridin-3-yl)-9H-pyrrolo[2,3-b:5,4-c′]dipyridin-4-yl]-N-(4-methylpiperazin-1-yl)benzamide]	6.00 to 7.00	> 7.00	6.00 to 7.00	6.00 to 7.00	6.00 to 7.00	> 7.00	> 7.00	5.30 to 6.00
CN(C)CCCNC(=O)c1ccc(-c2c(F)cnc3[nH]c4cnc(-c5cccnc5)cc4c23)cc1 [Example 10, N-[3-(dimethylamino)propyl]-4-[3-fluoro-6-(pyridin-3-yl)-9H-pyrrolo[2,3-b:5,4-c′]dipyridin-4-yl]benzamide]	6.00 to 7.00	> 7.00	5.30 to 6.00	6.00 to 7.00	6.00 to 7.00	6.00 to 7.00	> 7.00	5.30 to 6.00
CN(C)CCNC(=O)c1cccc(-c2c(F)cnc3[nH]c4cnc(-c5cccnc5)cc4c23)c1 [Example 12, N-[2-(dimethylamino)ethyl]-3-[3-fluoro-6-(pyridin-3-yl)-9H-pyrrolo[2,3-b:5,4-c′]dipyridin-4-yl]benzamide]	5.30 to 6.00	> 7.00	5.30 to 6.00	5.30 to 6.00	6.00 to 7.00	6.00 to 7.00	> 7.00	5.30 to 6.00
O=C(NCCCN1CCOCC1)c1ccc(-c2c(F)cnc3[nH]c4cnc(-c5cccnc5)cc4c23)cc1 [Example 19, 4-[3-fluoro-6-(pyridin-3-yl)-9H-pyrrolo[2,3-b:5,4-c′]dipyridin-4-yl]-N-[3-(morpholin-4-yl)propyl]benzamide]	–	> 7.00	6.00 to 7.00	6.00 to 7.00	6.00 to 7.00	6.00 to 7.00	> 7.00	5.30 to 6.00
O=C(NCCCN1CCCC1)c1ccc(-c2c(F)cnc3[nH]c4cnc(-c5cccnc5)cc4c23)cc1 [Example 20, 4-[3-fluoro-6-(pyridin-3-yl)-9H-pyrrolo[2,3-b:5,4-c′]dipyridin-4-yl]-N-[3-(pyrrolidin-1-yl)propyl]benzamide]	–	> 7.00	6.00 to 7.00	6.00 to 7.00	6.00 to 7.00	6.00 to 7.00	> 7.00	6.00 to 7.00
O=C(NCCN1CCOCC1)c1ccc(-c2c(F)cnc3[nH]c4cnc(-c5cccnc5)cc4c23)cc1 [Example 21, 4-[3-fluoro-6-(pyridin-3-yl)-9H-pyrrolo[2,3-b:5,4-c′]dipyridin-4-yl]-N-[2-(morpholin-4-yl)ethyl]benzamide]	6.00 to 7.00	> 7.00	5.30 to 6.00	5.30 to 6.00	6.00 to 7.00	6.00 to 7.00	> 7.00	6.00 to 7.00
CN(C)CCCNC(=O)c1ccc(-c2c(F)cnc3[nH]c4cnc(-c5cnn(C)c5)cc4c23)cc1 [Example 38]	6.00 to 7.00	> 7.00	5.30 to 6.00	> 7.00	6.00 to 7.00	> 7.00	> 7.00	6.00 to 7.00
